We go through 6 compounds from article PMC9705736, “Synthesis of activity evaluation of flavonoid derivatives as ɑ-glucosidase inhibitors” (Frontiers in Chemistry, 2022).

A word on the IC50: it is the point on the concentration scale where inhibition reaches its midpoint. High values mean weaker potency, low ones greater potency. The term melting point denotes the temperature of the solid-liquid transition.

Data set [1] has as its target T1, α-Glucosidase from Saccharomyces cerevisiae (EC 3.2.1.20) (Saccharomyces cerevisiae, UniProt P53341).
T1 construct: purchased Sigma-Aldrich
Description: biochemical.

In data set [2] the target is T1, α-Glucosidase from Saccharomyces cerevisiae (EC 3.2.1.20). Description: Enzyme inhibitory mechanism and kinetic type assay (Lineweaver-Burk plots). As to conditions: compound 0–25 μM. Type of data set: biochemical. An excerpt: To study the inhibitory mechanisms of all derivatives on α-glucosidase, enzyme inhibitory mechnism was detected using compound 4 with the strongest inhibitory. Figure 3A illustrated the plots of enzyme activity vs. enzyme concentration.
The kinetic type was also studied using Lineweaver-Burk plots.
α-Glucosidase from Saccharomyces cerevisiae (EC 3.2.1.20) and p-Nitrophenyl-α-D-[…] (p-NPG) were purchased from Sigma-Aldrich. All additional reagents and solvents were readily obtained from a commercial source. NMR spectra were obtained on 500 MHz equipment in CDCl3. High-resolution mass spectral (HRMS) data was recorded on Apex II using the ESI technique.
The α-glucosidase inhibitory activity of compounds (1 ∼ 6) was detected as described in previous reports ([Adisakwattana et al., 2009]; [Adisakwattana et al., 2013]; [Zhang et al., 2022]). 10 μl α-glucosidase solution, 10 μl compound were added into 80 μl phosphate buffer, and the mixture was incubated for 10 min. Then, 100 μl p-NPG solution was added into the mixture, followed by the absorbance change detection at 405 nm. The inhibition rate (%) = […] × 100%, where OD1 and OD0 were the absorbance of tested compound and blank, respectively. The IC50 value was calculated from the plot of inhibition rate vs. compound concentration. Acarbose was used as a positive sample. All samples were repeated four times. The enzyme inhibitory mechnism and kinetic type were also determined according to previous reported reports ([Adisakwattana et al., 2004]; [Song et al., 2016]).

T1 sequence (P53341 whole entry): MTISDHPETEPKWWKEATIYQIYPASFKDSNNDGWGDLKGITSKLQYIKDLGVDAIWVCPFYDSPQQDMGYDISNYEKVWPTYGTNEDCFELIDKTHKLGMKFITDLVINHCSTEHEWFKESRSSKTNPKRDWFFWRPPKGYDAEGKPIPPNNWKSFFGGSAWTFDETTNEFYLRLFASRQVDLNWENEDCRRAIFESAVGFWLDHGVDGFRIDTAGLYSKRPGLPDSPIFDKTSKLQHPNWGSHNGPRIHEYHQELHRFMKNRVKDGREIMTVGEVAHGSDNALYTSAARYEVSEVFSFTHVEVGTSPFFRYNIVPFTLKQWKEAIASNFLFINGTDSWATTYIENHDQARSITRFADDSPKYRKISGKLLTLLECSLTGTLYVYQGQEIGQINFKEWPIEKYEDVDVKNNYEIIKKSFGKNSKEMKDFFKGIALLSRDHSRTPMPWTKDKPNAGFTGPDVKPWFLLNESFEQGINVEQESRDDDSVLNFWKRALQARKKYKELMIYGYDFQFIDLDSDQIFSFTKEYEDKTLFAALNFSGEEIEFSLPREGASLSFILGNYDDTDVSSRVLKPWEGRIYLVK

As for `O=C(CCc1ccccc1)Oc1ccc(-c2cc(=O)c3ccccc3o2)cc1` [Compound 1], the melting point was in the range of 133 to 134 °C. In data set [1], this compound returned an IC50 of 42.06 ± 0.08 µM.
On to `Cc1ccc(CCC(=O)Oc2ccc(-c3cc(=O)c4ccccc4o3)cc2)cc1` [Compound 2], for which the melting point lay in the range of 135 to 136 °C. The same compound returned an IC50 in data set [1] of 21.55 ± 0.13 µM.
On the same counts, the results for `O=C(CCc1ccc(Cl)cc1)Oc1ccc(-c2cc(=O)c3ccccc3o2)cc1` [Compound 3] are 112 to 114 °C and 31.09 ± 0.1 µM.
`O=C(CCc1ccc(Br)cc1)Oc1ccc(-c2cc(=O)c3ccccc3o2)cc1` [Compound 4] showed a melting point of 127 to 129 °C. The IC50 in data set [1] was found to be 15.7 ± 0.21 µM. In addition, in data set [2], the “Inhibition type (Lineweaver-Burk plots of enzyme activity vs. substrate concentration)” value was “mix-type inhibition” and the “Inhibitory mechanism (plots of enzyme activity vs. enzyme concentration)” value is recorded as “reversible inhibitor”. Besides, in data set [2] (listed as derivative four), the “Inhibition type (Lineweaver-Burk plots of enzyme activity vs. substrate concentration)” value is “mixed-type inhibitor” and the “Inhibitory mechanism (plots of enzyme activity vs. enzyme concentration)” value is “reversible”.
`O=C(CCc1ccc(F)cc1)Oc1ccc(-c2cc(=O)c3ccccc3o2)cc1` [Compound 5]: the melting point is 103 to 104 °C. In data set [1], this compound displayed an IC50 of 19.66 ± 0.04 µM.
In turn, `O=C(CCc1ccc(C(F)(F)F)cc1)Oc1ccc(-c2cc(=O)c3ccccc3o2)cc1` [Compound 6] came in with a melting point of 250 to 251 °C. In data set [1], this compound had an IC50 of 27.54 ± 0.02 µM.
